Results from publication PMC3742671, “Structure, Antimicrobial Activities and Mode of Interaction with Membranes of Bovel Phylloseptins from the Painted-Belly Leaf Frog, Phyllomedusa sauvagii” (PLoS ONE, 2013).
Ends that are not written are not given here.

Columns and labels:
[1] = Circular dichroism spectroscopy in SDS micelles; format: physicochemical; settings: CD, peptide 30 µM in 80 mM SDS
Method: (§1) The far-ultraviolet circular dichroism (CD) spectra were recorded as described. Phylloseptins-S (30 µM) were solubilized either in 80 mM sodium dodecyl sulfate (SDS) or in phosphate-buffered saline (PBS: 10 mM phosphate, pH 7.3) containing 1 mg/mL of large unilamellar vesicles (LUVs) of 1,2-dimyristoyl-sn-glycero-3-phosphocholine (DMPC) and 1,2-dimyristoyl-sn-glycero-3-phosphoglycerol (DMPG) (3∶1 mol/mol). DMPC and DMPG were purchased from Avanti Polar Lipids, Inc. Each spectrum was the average of four scans. CD measurements are reported as Δ/n, where Δ is the dichroic increment and n is the number of residues in the peptide.
(§2) Figure 6 Circular dichroism spectra of synthetic phylloseptins-S (30 µM). (A) DMPC/DMPG (3∶1) large unilamellar vesicles in PBS (1 mg/mL). (B) 80 mM SDS. CD measurements are reported as the dichroic increment (Δε) per residue.

[2] = tested on: C. parapsilosis ATCC 22019; format: cell-based
Method: (§3) The effect of phylloseptins-S was evaluated against several bacterial strains and yeasts (Table 2). Bacteria were cultured in Luria-Bertani broth (LB), whereas yeasts were cultured in Yeast Peptone Dextrose medium (YPD), and minimal inhibitory concentrations (MICs) were determined by measuring the absorbance at 630 nm in 96-well microtitration plates, as described previously. Leishmanicidal activity of phylloseptins-S was also examined against promastigotes of different Leishmania species: Leishmania infantum (strain MHOM/MA/67/ITMAP-263), L. major (MHOM/SU/73/5-ASKH) and L. braziliensis (MHOM/BR/75/M2904). Culture of promastigotes and determination of the growth inhibition were performed as previously described, [22], [23].

[3] = tested on: S. cerevisiae; format: cell-based
Method: as §3

[4] = tested on: S. pyogenes ATCC 19615; settings: LB medium (pH 7), absorbance at 630 nm; average of three independent experiments in triplicates
Method: as §3
(§4) The antimicrobial activity of synthetic PLS-S1 to -S5 was assayed in LB medium (pH 7) against several Gram-negative and Gram-positive bacteria, and multi-drug resistant S. aureus strains. […] The antiparasitic activity of PLSs was also determined against three Leishmania species (L. infantum, L. major, and L. braziliensis). […] Because PLS-S3 contains histidines as basic residues and that approximately only 11% of these residues are positively charged at pH 7, we have evaluated the antibacterial activity at pH 5 at which His residues are predominantly positively charged (∼91%).

[5] = tested on: S. aureus ST1065; settings: LB medium (pH 7), absorbance at 630 nm; average of three independent experiments in triplicates
Method: as §3, §4

[6] = tested on: E. coli ATCC 25922; settings: for MIC: ATCC 25922, pH 7
Method: as §3, §4

[7] = tested on: S. aureus ATCC 25923; settings: LB medium (pH 7), absorbance at 630 nm, 96-well plates; average of three independent experiments in triplicates
Method: as §3, §4

[8] = tested on: K. pneumoniae ATCC 13883; settings: LB medium (pH 7), absorbance at 630 nm; average of three independent experiments in triplicates
Method: as §3, §4

[9] = tested on: E. coli ML-35p; settings: LB medium (pH 7), absorbance at 630 nm; average of three independent experiments in triplicates
Method: as §3, §4

[10] = tested on: S. aureus ATCC 43300; settings: strain resistant to methicillin and oxacillin; LB medium (pH 7), absorbance at 630 nm; average of three independent experiments in triplicates
Method: as §3, §4

[11] = tested on: E. faecalis ATCC 29212; settings: LB medium (pH 7), absorbance at 630 nm; average of three independent experiments in triplicates
Method: as §3, §4

[12] = tested on: S. aureus ATCC BAA-44; settings: multidrug resistant strain; LB medium (pH 7), absorbance at 630 nm; average of three independent experiments in triplicates
Method: as §3, §4

[13] = tested on: P. aeruginosa ATCC 27853; settings: LB medium (pH 7), absorbance at 630 nm; average of three independent experiments in triplicates
Method: as §3, §4

[14] = tested on: A. baumannii ATCC 19606; settings: LB medium (pH 7), absorbance at 630 nm; average of three independent experiments in triplicates
Method: as §3, §4

[15] = Circular dichroism spectroscopy with DMPC/DMPG (3:1) large unilamellar vesicles; format: physicochemical; settings: CD, peptide 30 µM, DMPC/DMPG (3:1) LUVs 1 mg/mL in PBS pH 7.3
Method: as §1, §2

Row | Substance | helix content [1] | MIC [2] | MIC [3] | MIC [4] | MIC [5] | MIC at pH 5 ([6]; ATCC 25922, pH 5) | MIC [6] | MIC [7] | MIC [8] | MIC [9] | MIC [10] | MIC [11] | MIC [12] | MIC [13] | MIC [14] | helix content [15]
1 | FLSLIPHIVSGVASLAIHF-NH2 [PLS-S3] | 44% | >200 µM | >200 µM | 12.5 µM | >200 µM | 50 µM | >200 µM | >200 µM | >200 µM | >200 µM | >200 µM | >200 µM | >200 µM | >200 µM | >200 µM | 65%
2 | LLGMIPVAISAISALSKL-NH2 [PLS-S5] | 20% | >100 µM |  |  | >100 µM |  | >100 µM | 25 µM |  | >100 µM | >100 µM | 100 µM | >100 µM | >100 µM |  | 60%
